What was measured:
Crude diglycosidase = experiment: Examination of temperature in the conversion into isoflavone aglycons by diglycosidase using soybean materials; assay type: biochemical, Penicillium multicolor IAM7153; set-up: Decomposition efficiency of glycitin family in roasted soy flour / Decomposition efficiency of daidzin family in roasted soy flour / Decomposition efficiency of genistin family in soymilk / Decomposition efficiency of daidzin family in soymilk / Decomposition efficiency of glycitin family in defatted soybean / Decomposition efficiency of daidzin family in defatted soybean: concentration or dose not given beside the values
Procedure, shortened: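 Temperature series (30-80° C.) of crude diglycosidase, diluted to 1.88 AU/mL in 20 mM acetate pH 4.0, acting on roasted soy flour, soymilk, defatted soybean or soy protein concentrate. Samples quenched with ethanol after 0-6 h, centrifuged, filtered and analyzed by HPLC for glycosides versus aglycons.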

[1] = test system: β-Glucosidase derived from almond; experiment: Reactivity toward various isoflavone glycosides (HPLC); assay type: biochemical; set-up: unit not given here; settings: 55 °C, pH 4.0
Procedure, shortened: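 Aglycone liberation was measured by reversed-phase HPLC (260 nm, calibration-curve quantitation) after ethanol extraction at 0, 1, 3 and 6 h. Reactions ran at 55° C, pH 4.0 (20 mM acetate), with each glycoside (from 2 mM methanol stock) and 0.75 AU/mL enzyme solution.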

[2] = 30 °C, heat treatment of enzyme: no, 0 h
[3] = 30 °C, heat treatment of enzyme: no, 1 h
[4] = 30 °C, heat treatment of enzyme: no, 3 h
[5] = 30 °C, heat treatment of enzyme: no, 6 h
[6] = 30 °C, heat treatment of enzyme: yes, 6 h
[7] = 45 °C, heat treatment of enzyme: no, 0 h
[8] = 45 °C, heat treatment of enzyme: no, 1 h
[9] = 45 °C, heat treatment of enzyme: no, 3 h
[10] = 45 °C, heat treatment of enzyme: no, 6 h
[11] = 45 °C, heat treatment of enzyme: yes, 6 h
[12] = 55 °C, heat treatment of enzyme: no, 0 h
[13] = 55 °C, heat treatment of enzyme: no, 1 h
[14] = 55 °C, heat treatment of enzyme: no, 3 h
[15] = 55 °C, heat treatment of enzyme: no, 6 h
[16] = 55 °C, heat treatment of enzyme: yes, 6 h
[17] = 65 °C, heat treatment of enzyme: no, 0 h
[18] = 65 °C, heat treatment of enzyme: no, 1 h
[19] = 65 °C, heat treatment of enzyme: no, 3 h
[20] = 65 °C, heat treatment of enzyme: no, 6 h
[21] = 65 °C, heat treatment of enzyme: yes, 6 h
[22] = 80 °C, heat treatment of enzyme: no, 0 h
[23] = 80 °C, heat treatment of enzyme: no, 1 h
[24] = 80 °C, heat treatment of enzyme: no, 3 h
[25] = 80 °C, heat treatment of enzyme: no, 6 h
[26] = 80 °C, heat treatment of enzyme: yes, 6 h

`COc1cc2c(=O)c(-c3ccc(O)cc3)coc2cc1O[C@@H]1O[C@H](CO)[C@@H](O)[C@H](O)[C@H]1O` [glycitin] was tested, and the “Decomposition efficiency of glycitin family in defatted soybean” value (Crude diglycosidase; 30° C., heat treatment of enzyme no, reaction time 0 h) was “not detected”, the “Decomposition efficiency of glycitin family in defatted soybean” value (Crude diglycosidase; 30° C., heat treatment of enzyme no, reaction time 1 h) was “not detected” and the “Decomposition efficiency of glycitin family in defatted soybean” value (Crude diglycosidase; 30° C., heat treatment of enzyme no, reaction time 3 h) was “not detected”. The “Decomposition efficiency of glycitin family in defatted soybean” value (Crude diglycosidase; 30° C., heat treatment of enzyme no, reaction time 6 h) was “not detected”, the “Decomposition efficiency of glycitin family in defatted soybean” value (Crude diglycosidase; 30° C., heat treatment of enzyme yes, reaction time 6 h) was “not detected” and the “Decomposition efficiency of glycitin family in concentrated soybean protein” value (Crude diglycosidase; [2]) was 52.2%. For the same compound, the “Decomposition efficiency of glycitin family in roasted soy flour” value (Crude diglycosidase; [2]) was 50.9%, the “Decomposition efficiency of glycitin family in soymilk” value (shortened to “Decomposition efficiency … in soymilk”) (Crude diglycosidase; [2]) was 43.9% and the “Decomposition efficiency of glycitin family in concentrated soybean protein” value (Crude diglycosidase; [3]) was 47.1%. The “Decomposition efficiency of glycitin family in roasted soy flour” value (Crude diglycosidase; [3]) was 34.8%, the “Decomposition efficiency … in soymilk” value (Crude diglycosidase; [3]) was “not detected” and the “Decomposition efficiency of glycitin family in concentrated soybean protein” value (Crude diglycosidase; [4]) was 39.1%. For the same compound, the “Decomposition efficiency of glycitin family in roasted soy flour” value (Crude diglycosidase; [4]) was “not detected”, the “Decomposition efficiency … in soymilk” value (Crude diglycosidase; [4]) was “not detected” and the “Decomposition efficiency of glycitin family in concentrated soybean protein” value (Crude diglycosidase; [5]) was 28.4%. The “Decomposition efficiency of glycitin family in roasted soy flour” value (Crude diglycosidase; [5]) was “not detected”, the “Decomposition efficiency … in soymilk” value (Crude diglycosidase; [5]) was “not detected” and the “Decomposition efficiency of glycitin family in concentrated soybean protein” value (Crude diglycosidase; [6]) was 52.8%. For the same compound, the “Decomposition efficiency of glycitin family in roasted soy flour” value (Crude diglycosidase; [6]) was 51.4%, the “Decomposition efficiency … in soymilk” value (Crude diglycosidase; [6]) was 44.5% and the “Decomposition efficiency of glycitin family in defatted soybean” value (Crude diglycosidase; 45° C., heat treatment of enzyme no, reaction time 0 h) was “not detected”. For the same compound, the “Decomposition efficiency of glycitin family in defatted soybean” value (Crude diglycosidase; 45° C., heat treatment of enzyme no, reaction time 1 h) was “not detected”, the “Decomposition efficiency of glycitin family in defatted soybean” value (Crude diglycosidase; 45° C., heat treatment of enzyme no, reaction time 3 h) was “not detected” and the “Decomposition efficiency of glycitin family in defatted soybean” value (Crude diglycosidase; 45° C., heat treatment of enzyme no, reaction time 6 h) was “not detected”. The “Decomposition efficiency of glycitin family in defatted soybean” value (Crude diglycosidase; 45° C., heat treatment of enzyme yes, reaction time 6 h) was “not detected”, the “Decomposition efficiency of glycitin family in concentrated soybean protein” value (Crude diglycosidase; [7]) was 52.3% and the “Decomposition efficiency of glycitin family in roasted soy flour” value (Crude diglycosidase; [7]) was 51.3%. The “Decomposition efficiency … in soymilk” value (Crude diglycosidase; [7]) was 42.6%, the “Decomposition efficiency of glycitin family in concentrated soybean protein” value (Crude diglycosidase; [8]) was 30.2% and the “Decomposition efficiency of glycitin family in roasted soy flour” value (Crude diglycosidase; [8]) was 12.4%. The “Decomposition efficiency … in soymilk” value (Crude diglycosidase; [8]) was “not detected”, the “Decomposition efficiency of glycitin family in concentrated soybean protein” value (Crude diglycosidase; [9]) was 18.8% and the “Decomposition efficiency of glycitin family in roasted soy flour” value (Crude diglycosidase; [9]) was 12.4%. The “Decomposition efficiency … in soymilk” value (Crude diglycosidase; [9]) was “not detected”, the “Decomposition efficiency of glycitin family in concentrated soybean protein” value (Crude diglycosidase; [10]) was 7.5% and the “Decomposition efficiency of glycitin family in roasted soy flour” value (Crude diglycosidase; [10]) was 5.9%. The “Decomposition efficiency … in soymilk” value (Crude diglycosidase; [10]) was “not detected”, the “Decomposition efficiency of glycitin family in concentrated soybean protein” value (Crude diglycosidase; [11]) was 53.2% and the “Decomposition efficiency of glycitin family in roasted soy flour” value (Crude diglycosidase; [11]) was 49.8%. For the same compound, the “Decomposition efficiency … in soymilk” value (Crude diglycosidase; [11]) was 45.4%, the “Decomposition efficiency of glycitin family in defatted soybean” value (Crude diglycosidase; 55° C., heat treatment of enzyme no, reaction time 0 h) was “not detected” and the “Decomposition efficiency of glycitin family in defatted soybean” value (Crude diglycosidase; 55° C., heat treatment of enzyme no, reaction time 1 h) was “not detected”. For the same compound, the “Decomposition efficiency of glycitin family in defatted soybean” value (Crude diglycosidase; 55° C., heat treatment of enzyme no, reaction time 3 h) was “not detected”, the “Decomposition efficiency of glycitin family in defatted soybean” value (Crude diglycosidase; 55° C., heat treatment of enzyme no, reaction time 6 h) was “not detected” and the “Decomposition efficiency of glycitin family in defatted soybean” value (Crude diglycosidase; 55° C., heat treatment of enzyme yes, reaction time 6 h) was “not detected”. The “Decomposition efficiency of glycitin family in concentrated soybean protein” value (Crude diglycosidase; [12]) was 52.3%, the “Decomposition efficiency of glycitin family in roasted soy flour” value (Crude diglycosidase; [12]) was 50.5% and the “Decomposition efficiency … in soymilk” value (Crude diglycosidase; [12]) was 47.8%. The “Decomposition efficiency of glycitin family in concentrated soybean protein” value (Crude diglycosidase; [13]) was 14.2%, the “Decomposition efficiency of glycitin family in roasted soy flour” value (Crude diglycosidase; [13]) was “not detected” and the “Decomposition efficiency … in soymilk” value (Crude diglycosidase; [13]) was “not detected”. The “Decomposition efficiency of glycitin family in concentrated soybean protein” value (Crude diglycosidase; [14]) was “not detected”, the “Decomposition efficiency of glycitin family in roasted soy flour” value (Crude diglycosidase; [14]) was “not detected” and the “Decomposition efficiency … in soymilk” value (Crude diglycosidase; [14]) was “not detected”. The “Decomposition efficiency of glycitin family in concentrated soybean protein” value (Crude diglycosidase; [15]) was “not detected”, the “Decomposition efficiency of glycitin family in roasted soy flour” value (Crude diglycosidase; [15]) was “not detected” and the “Decomposition efficiency … in soymilk” value (Crude diglycosidase; [15]) was “not detected”. For the same compound, the “Decomposition efficiency of glycitin family in concentrated soybean protein” value (Crude diglycosidase; [16]) was 52.9%, the “Decomposition efficiency of glycitin family in roasted soy flour” value (Crude diglycosidase; [16]) was 51.7% and the “Decomposition efficiency … in soymilk” value (Crude diglycosidase; [16]) was 53.5%. The “Decomposition efficiency of glycitin family in defatted soybean” value (Crude diglycosidase; 65° C., heat treatment of enzyme no, reaction time 0 h) was “not detected”, the “Decomposition efficiency of glycitin family in defatted soybean” value (Crude diglycosidase; 65° C., heat treatment of enzyme no, reaction time 1 h) was “not detected” and the “Decomposition efficiency of glycitin family in defatted soybean” value (Crude diglycosidase; 65° C., heat treatment of enzyme no, reaction time 3 h) was “not detected”. For the same compound, the “Decomposition efficiency of glycitin family in defatted soybean” value (Crude diglycosidase; 65° C., heat treatment of enzyme no, reaction time 6 h) was “not detected”, the “Decomposition efficiency of glycitin family in defatted soybean” value (Crude diglycosidase; 65° C., heat treatment of enzyme yes, reaction time 6 h) was “not detected” and the “Decomposition efficiency of glycitin family in concentrated soybean protein” value (Crude diglycosidase; [17]) was 52.2%. The “Decomposition efficiency of glycitin family in roasted soy flour” value (Crude diglycosidase; [17]) was 50.9%, the “Decomposition efficiency … in soymilk” value (Crude diglycosidase; [17]) was 43.9% and the “Decomposition efficiency of glycitin family in concentrated soybean protein” value (Crude diglycosidase; [18]) was 5.2%. For the same compound, the “Decomposition efficiency of glycitin family in roasted soy flour” value (Crude diglycosidase; [18]) was “not detected”, the “Decomposition efficiency … in soymilk” value (Crude diglycosidase; [18]) was “not detected” and the “Decomposition efficiency of glycitin family in concentrated soybean protein” value (Crude diglycosidase; [19]) was “not detected”. The “Decomposition efficiency of glycitin family in roasted soy flour” value (Crude diglycosidase; [19]) was “not detected”, the “Decomposition efficiency … in soymilk” value (Crude diglycosidase; [19]) was “not detected” and the “Decomposition efficiency of glycitin family in concentrated soybean protein” value (Crude diglycosidase; [20]) was “not detected”. For the same compound, the “Decomposition efficiency of glycitin family in roasted soy flour” value (Crude diglycosidase; [20]) was “not detected”, the “Decomposition efficiency … in soymilk” value (Crude diglycosidase; [20]) was “not detected” and the “Decomposition efficiency of glycitin family in concentrated soybean protein” value (Crude diglycosidase; [21]) was 52.5%. The “Decomposition efficiency of glycitin family in roasted soy flour” value (Crude diglycosidase; [21]) was 50.3%, the “Decomposition efficiency … in soymilk” value (Crude diglycosidase; [21]) was 56.8% and the “Decomposition efficiency of glycitin family in defatted soybean” value (Crude diglycosidase; 80° C., heat treatment of enzyme no, reaction time 0 h) was “not detected”. For the same compound, the “Decomposition efficiency of glycitin family in defatted soybean” value (Crude diglycosidase; 80° C., heat treatment of enzyme no, reaction time 1 h) was “not detected”, the “Decomposition efficiency of glycitin family in defatted soybean” value (Crude diglycosidase; 80° C., heat treatment of enzyme no, reaction time 3 h) was “not detected” and the “Decomposition efficiency of glycitin family in defatted soybean” value (Crude diglycosidase; 80° C., heat treatment of enzyme no, reaction time 6 h) was “not detected”. The “Decomposition efficiency of glycitin family in defatted soybean” value (Crude diglycosidase; 80° C., heat treatment of enzyme yes, reaction time 6 h) was “not detected”, the “Decomposition efficiency of glycitin family in concentrated soybean protein” value (Crude diglycosidase; [22]) was 52.3% and the “Decomposition efficiency of glycitin family in roasted soy flour” value (Crude diglycosidase; [22]) was 51.3%. The “Decomposition efficiency … in soymilk” value (Crude diglycosidase; [22]) was 42.6%, the “Decomposition efficiency of glycitin family in concentrated soybean protein” value (Crude diglycosidase; [23]) was 39.7% and the “Decomposition efficiency of glycitin family in roasted soy flour” value (Crude diglycosidase; [23]) was 19.2%. The “Decomposition efficiency … in soymilk” value (Crude diglycosidase; [23]) was 10.7%, the “Decomposition efficiency of glycitin family in concentrated soybean protein” value (Crude diglycosidase; [24]) was 40.5% and the “Decomposition efficiency of glycitin family in roasted soy flour” value (Crude diglycosidase; [24]) was 20.5%. For the same compound, the “Decomposition efficiency … in soymilk” value (Crude diglycosidase; [24]) was 22.5%, the “Decomposition efficiency of glycitin family in concentrated soybean protein” value (Crude diglycosidase; [25]) was 41.7% and the “Decomposition efficiency of glycitin family in roasted soy flour” value (Crude diglycosidase; [25]) was 33.6%. For the same compound, the “Decomposition efficiency … in soymilk” value (Crude diglycosidase; [25]) was 44.2%, the “Decomposition efficiency of glycitin family in concentrated soybean protein” value (Crude diglycosidase; [26]) was 53.6% and the “Decomposition efficiency of glycitin family in roasted soy flour” value (Crude diglycosidase; [26]) was 50.6%. For the same compound, the “Decomposition efficiency … in soymilk” value (Crude diglycosidase; [26]) was 71.4%, the aglycon ([1]; Reaction time 0 h) was 0 and the glucoside ([1]; Reaction time 0 h) was 100. It also gave an aglycon ([1]; Reaction time 1 h) of 1.6, a glucoside ([1]; Reaction time 1 h) of 98.4 and an aglycon ([1]; Reaction time 3 h) of 1.9. The glucoside ([1]; Reaction time 3 h) was 98.1, the aglycon ([1]; Reaction time 6 h) was 1.9 and the glucoside ([1]; Reaction time 6 h) was 98.1.

Reference: patent publication US7118895B2, “Process for producing aglycon by using diglycosidase and flavor-improved food containing the aglycon and converting agent to be used in the process” (Amano Enzyme Inc., priority 2000, dated 2006)
